According to patent US9976170B2, “Method for evaluating bacterial cell wall integrity” (UNIVERSIDAD AUTONOMA DE MADRID, priority 2011, dated 2018):
Values after ≈ are worked out from the molar mass of the structure shown.

Experiments:
Assay type in all cases: cell-based
[1] = system: ampicillin-sensitive E. coli strain; test: microgranular-fibrillar background in microgels stained with SYBR Gold (Example 8); settings: 32 μg/mL, 60 minutes
Method: The experiment was conducted with a strain of ampicillin-sensitive E. coli and a strain of imipenem-sensitive A. baumanii. The first strain was incubated with 32 μg/mL ampicillin and the second strain with 0.76 μg/mL imipenem for 60 minutes in Mueller-Hinton liquid medium at 37° C. under stirring. After incubation, each culture with the cells was included in microgels on the slide. A microgel containing the antibiotic-free control culture, and 2 microgels containing the culture treated with antibiotic were placed on each slide. The size of each microgel corresponds to a 18×18 mm slide cover. The microgels on some slides were washed in a proteinase K buffer (1% SDS, 2 mM EDTA) and the microgels on other slides were washed in a DNAase I buffer (20 mM Tris-HCl, pH 8.3, 2 mM MgCl2). In the former, one of the microgels containing the culture treated with ampicillin was incubated only with a proteinase K buffer and the other microgel containing the culture treated with ampicillin was incubated with 5 μl of 2 mg/mL proteinase K, in the buffer thereof. In the slides washed with a DNAase I buffer, one of the microgels containing the culture treated with ampicillin was incubated only with a DNAase I buffer and the other microgel containing the culture treated with ampicillin was incubated with 5 μl of 2.5 U DNAase I, in the buffer thereof. […]

[2] = system: Enterococcus faecium, ampicillin- and benzylpenicillin-resistant strain; test: MIC by microdilution and/or E-test
Excerpt: (§1) The strains and the antibiotics used were: • Gram+ • Enterococcus faecalis.
(§2) The doses of antibiotic applied were 0, the MIC determined in the Microbiology Laboratory by means of the microdilution and/or E-test technique, and those of the cutoff points of sensitivity and resistance indicated by the Clinical and Laboratory Standards Institute (CLSI) for each strain. A dose 10 times higher than the MIC was also used.

[3] = system: Enterococcus faecalis, ampicillin-sensitive and benzylpenicillin-resistant strain; test: MIC by microdilution and/or E-test
Excerpt: as §1, §2

[4] = system: ampicillin-sensitive E. coli strain; test: incubation with increasing doses of antibiotic, lysed/non-lysed cells normalized by OD 600 (persisters); settings: 60 minutes; for Lysed Cells Relative / Non-lysed Cells Relative: normalized by OD 600
[5] = system: Escherichia coli, ampicillin- and ceftazidime-resistant strain; test: technique for evaluating cell wall integrity (lysis solution, nucleoid release, fluorescence microscopy); settings: 60 minutes
Method: (§3) Different bacterial strains grown on a dish with Mueller-Hinton medium for 24 hours were subsequently exposed to a β-lactam antibiotic for 60 minutes in Mueller-Hinton liquid medium at 37° C., under stirring, and were finally processed by means of the technique for evaluating cell wall integrity according to the present invention.
as §2

[6] = system: Enterococcus faecium, ampicillin- and benzylpenicillin-resistant strain; test: as above; settings: 320 μg/mL, 60 minutes
Method: as §3, §2

[7] = system: Enterococcus faecalis, ampicillin-sensitive and benzylpenicillin-resistant strain; test: as above; settings: 60 minutes
Method: as §3, §2

[8] = system: Escherichia coli, ceftazidime-sensitive strain with intermediate sensitivity to ampicillin; test: as above; settings: 60 minutes
Method: as §3, §2

## CC1(C)S[C@@H]2[C@H](NC(=O)[C@H](N)c3ccccc3)C(=O)N2[C@H]1C(=O)O [ampicillin]
[1]
  microgranular-fibrillar background in the preparation: showed the background
[2]
  MIC: > 32 µg/mL
[3]
  MIC: 4 µg/mL (≈ 11.4 µM)
[4]; dose 2 μg/mL
  Lysed Cells %: 90.3%
  Non-lysed Cells %: 9.7%
  OD600 (ODinitial = 0.1): 0.323
  RELATIVE OD600 %: 77.6%
  Lysed Cells Relative: 70.1
  Non-lysed Cells Relative: 7.5
[4]; dose 8 μg/mL
  Lysed Cells %: 70.6%
  Non-lysed Cells %: 29.3%
  OD600 (ODinitial = 0.1): 0.120
  RELATIVE OD600 %: 28.8%
  Lysed Cells Relative: 20.4
  Non-lysed Cells Relative: 8.5
[4]; dose 16 μg/mL
  Lysed Cells %: 37.5%
  Non-lysed Cells %: 62.5%
  OD600 (ODinitial = 0.1): 0.050
  RELATIVE OD600 %: 12.0%
  Lysed Cells Relative: 4.5
  Non-lysed Cells Relative: 7.5
[4]; dose 32 μg/mL
  Lysed Cells %: 22.5%
  Non-lysed Cells %: 77.5%
  OD600 (ODinitial = 0.1): 0.027
  RELATIVE OD600 %: 6.5%
  Lysed Cells Relative: 1.5
  Non-lysed Cells Relative: 5.0
[4]; dose 160 μg/mL
  Lysed Cells %: 15.0%
  Non-lysed Cells %: 85.0%
  OD600 (ODinitial = 0.1): 0.024
  RELATIVE OD600 %: 5.8%
  Lysed Cells Relative: 0.9
  Non-lysed Cells Relative: 4.9
[4]; over all increasing doses, according to relative OD 600
  relative proportion of non-lysed cells: 5-8.5
[5]; 256 μg/mL
  background of extracellular DNA fragments: without background
  cells lysed with nucleoid with fragmented DNA: 1%
  lysed cells: 0.5%
[5]; 2,560 μg/mL
  background of extracellular DNA fragments: subtle background
  cells lysed with nucleoid with fragmented DNA: 1.5%
  empty capsules: 4%
  heavily lysed cells: 13%
  moderately lysed cells: 5%
[6]
  background of extracellular DNA fragments: subtle background
  cells with a small halo: 2%
  heavily lysed cells: 7.5%
  lysed cells with nucleoid with fragmented DNA: 1%
  non-lysed cells: 89%
[7]; 4 μg/mL (MIC)
  background of extracellular DNA fragments: subtle background
  cells lysed with fragmented DNA: 12%
  heavily lysed cells: 35%
  moderately lysed cells: 25%
  non-lysed cells: 28%
[7]; 40 μg/mL
  background of extracellular DNA fragments: very faint
  cells lysed with fragmented DNA nucleoid: 2%
  cells with a large lysis halo: 20%
  cells with a small halo: 15%
  non-lysed cells: 63%
[8]; 8 μg/mL
  background of extracellular DNA fragments: extensive background
  cells lysed with nucleoid with fragmented DNA: 9%
  heavily lysed cells: 55%
[8]; 16 μg/mL (MIC)
  empty capsules: 22.6
  lysed cells with a large halo: 60.4%
  lysed cells with nucleoid with fragmented DNA: 5.7%
  non-lysed cells: 11.3%
[8]; 20 μg/mL
  cells with a large halo: 47.3%
  empty capsules: 31.2%
  lysed cells with nucleoid with fragmented DNA: 8.6%
  non-lysed cells: 12.9%
[8]; 32 and 160 μg/mL
  empty capsules: 54%
